{"source": "patent US20170281651A1", "about": "“CONCOMITANT ADMINISTRATION OF GLUCOCORTICOID RECEPTOR MODULATORS AND CYP3A OR STEROIDOGENESIS INHIBITORS” (Corcept Therapeutics, Inc., priority 2017, published 2017)", "assay_type_in_all_cases": "in vivo, human", "key": {"[1]": {"assay": "Example 3: Phase 1 study of ketoconazole 200 mg twice daily with mifepristone 600 mg once daily with food, plasma PK incl. cross-study comparison"}, "[2]": {"assay": "Example 1: safety (adverse events, laboratory tests, ECG)", "method": "(§1) In cohort 1, six subjects received ketoconazole 400 mg OD for 14 days.\n(§2) In cohort 2, six subjects received ketoconazole 200 mg BID for 14 days. […] All 12 subjects completed the study. Cohort 2 subjects participated in a Screening visit to assess eligibility and a check-in Day (Day −1) during which eligibility was re-confirmed. […] The evening of Day 1, subjects received 200 mg oral ketoconazole. Subjects remained in the clinic on Days 2, 3 and 4 to receive 200 mg BID oral ketoconazole, and for safety evaluation and collection of blood pharmacokinetic (PK) samples. Subjects were discharged from the clinic on Day 4 following evening administration of 200 mg oral ketoconazole, and returned to the clinic the morning and evening of Days 5 through 13 to receive 200 mg BID oral ketoconazole. Morning doses of ketoconazole on Days 0-13 were administered in the fasted state.\n(§3) Subjects in both cohorts returned to the study center on Day 15 for safety monitoring, and completion of the Termination Visit procedures, followed by discharge from the study. Safety was assessed by spontaneously reported adverse events, physical examinations, and routine clinical laboratory tests. To the extent possible, any adverse events deemed study drug-related and that were ongoing at the time of discharge from the study were followed-up to resolution or until a determination is made that the unresolved event was stable."}, "[3]": {"assay": "Example 3: safety (adverse events, laboratory tests, vital signs, ECG)", "method": "A single dose of ketoconazole was administered on Day −1."}, "[4]": {"assay": "Example 2: safety (adverse events, physical examinations, laboratory tests)", "method": "This was an open-label study in healthy male subjects. […] The 400 mg single dose of ketoconazole was given to all subjects on day 8.\nSafety was assessed by spontaneously reported adverse events, physical examinations, and routine clinical laboratory tests. Adverse event data were tabulated. Physical findings and laboratory test results were listed by subject."}, "[5]": {"assay": "Examples 4-7: liver function of a patient with excess cortisol switched to reduced mifepristone dose plus ketoconazole"}, "[6]": {"assay": "Example 1: effect of oral ketoconazole (400 mg OD or 200 mg BID) on plasma pharmacokinetics of a 300 mg single dose of mifepristone, fasted", "details": "for Cmax / AUC(0-t) / half-life / Tmax: male, human, plasma, oral; for AUC(0-t): read-out: AUCt (AUC0-24 hours, mean); for half-life: read-out: T1/2 (mean) (converted); for Tmax: read-out: Tmax (median)", "description": "This study was an open-label study in healthy male subjects.\nHealthy male volunteers between the ages of 18 to 45 years of age with a body mass index (BMI) ranging between 19 and 32 kg/m2 and a weight of at least 60 kg (132 lbs) were enrolled. Subjects had no clinically significant abnormal findings on the physical examination, ECG, blood pressure, heart rate, medical history, or clinical laboratory results during screening. The QTc interval at screening was less than 450 msec.\nas §1\nSubjects remained in the clinic on Days 2 and 3 to receive 400 mg OD oral ketoconazole fasted, and for safety evaluation and collection of blood pharmacokinetic (PK) samples. Subjects were discharged from the clinic on Day 4 following administration of 400 mg OD oral ketoconazole fasted, and returned to the clinic the mornings of Days 5 through 13 to receive 400 mg OD oral ketoconazole fasted.\nas §2, §3\nDescriptive statistics (count, mean, median, standard deviation, minimum, maximum, and % coefficient of variation) were provided. […] Comparisons with previous study data were made."}, "[7]": {"details": "Test: Day 17 600 mg mifepristone OD + 200 mg Ketoconazole BID, Reference: Day 12 600 mg mifepristone OD"}, "[8]": {"details": "Test: Present Study Day 17 600 mg mifepristone OD + 200 mg Ketoconazole BID, Reference: Historic Study Day 7 1200 mg mifepristone OD alone, after 34% fat meal"}, "[9]": {"details": "mifepristone 300 mg single dose with ketoconazole for 14 days"}, "[10]": {"details": "C2/C1 (Keto 200 mg BID vs 400 mg OD)"}, "[11]": {"details": "MIFE 300 mg single dose fasted + Keto 200 mg BID (Cohort 2)"}, "[12]": {"details": "MIFE 300 mg single dose fasted + Keto 400 mg OD (Cohort 1)"}}, "note": "Values joined by “and” are separate entries in the source; they are usually repeats but may differ in a detail not shown here. Equal entries are not always repeated. Where two headings read alike, the source gives them in different places.", "data": [{"smiles": "CC#C[C@]1(O)CC[C@H]2[C@@H]3CCC4=CC(=O)CCC4=C3[C@@H](c3ccc(N(C)C)cc3)C[C@@]21C", "note": "[mifepristone, 11β-(4-dimethylaminophenyl)-17β-hydroxy-17α-(1-propynyl)-estra-4,9-dien-3-one]", "values": [{"measurement": "exposure as percent of that following the highest labeled dose (1200 mg daily)", "setting": "[1]; 600 mg mifepristone once daily with 200 mg ketoconazole twice daily", "value": "approximately 85%"}, {"measurement": "effect of ketoconazole on exposure (90% CI vs standard 80:125 interval)", "setting": "[1]; Day 17 vs Day 12", "value": "increased"}, {"measurement": "difference of time 0 (pre-dose) plasma concentration", "setting": "[1]; Day 17 vs Day 12, FIG. 2", "value": "~500", "unit": "ng/mL"}, {"measurement": "concentrations on Day 17 compared with Day 12", "setting": "[1]; Day 17 with 200 mg ketoconazole twice daily, Day 12 mifepristone alone", "value": "higher"}, {"measurement": "AUC0-24 Ratio % Test/Reference (geometric mean ratio)", "setting": "[1]; [7]", "value": 138.01, "unit": "%"}, {"measurement": "Cmax Ratio % Test/Reference (geometric mean ratio)", "setting": "[1]; [7]", "value": 127.59, "unit": "%"}, {"measurement": "AUC0-24 Ratio % Test/Ref (cross-study, geometric mean ratio)", "setting": "[1]; [8]", "value": "87.27% and 87%"}, {"measurement": "Cmax Ratio % Test/Ref (cross-study, geometric mean ratio)", "setting": "[1]; [8]", "value": 84.64, "unit": "%"}, {"measurement": "AUC0-24 Ratio % Test/Ref (cross-study, geometric mean ratio)", "setting": "[1]; Test: Present Study Day 17 600 mg mifepristone OD + 200 mg Ketoconazole BID, Reference: Historic Study Day 7 1200 mg mifepristone OD alone, after 34% fat meal, listed as Mifepristone", "value": 87.27, "unit": "%"}, {"measurement": "exposure less than that of 1200 mg mifepristone in the absence of ketoconazole", "setting": "[1]; mifepristone 600 mg co-administered with ketoconazole", "value": "13-15%"}, {"measurement": "safety and tolerability", "setting": "[2]; 300 mg single-dose fasted with ketoconazole 400 mg OD or 200 mg BID for 14 days, healthy volunteers", "value": "safe and well tolerated"}, {"measurement": "subjects with at least one treatment emergent adverse event (TEAE)", "setting": "[2]; 12 subjects, mifepristone 300 mg single dose with ketoconazole for 14 days", "value": 25, "unit": "%"}, {"measurement": "changes in ECG parameters", "setting": "[2]; mifepristone 300 mg single dose with ketoconazole", "value": "No clinically significant changes"}, {"measurement": "SAE or AE resulting in discontinuation", "setting": "[2]; [9]", "value": "No subject experienced a serious adverse effect (SAE), or an adverse event (AE) that resulted in discontinuation"}, {"measurement": "TEAEs considered by the investigator to be related to the drug", "setting": "[2]; [9]", "value": "No TEAE"}, {"measurement": "subjects reporting at least one TEAE", "setting": "[3]; during the mifepristone/ketoconazole treatment period", "value": 57.1, "unit": "%"}, {"measurement": "subjects reporting at least one TEAE", "setting": "[3]; during treatment with mifepristone alone (600 mg once daily)", "value": 55.6, "unit": "%"}, {"measurement": "subjects with elevated laboratory test results reported as drug-related TEAEs", "setting": "[3]; liver enzymes (one subject), creatinine (two subjects), from Day 14", "value": "Three subjects"}, {"measurement": "effects on hematology or urinalysis parameters, vital signs, or ECGs", "setting": "[3]; multiple-dose mifepristone with or without multiple-dose ketoconazole", "value": "No clinically significant effects"}, {"measurement": "deaths or SAEs", "setting": "[3]; whole study", "value": "No deaths or SAEs"}, {"measurement": "severe TEAEs", "setting": "[3]; whole study", "value": "No severe TEAEs"}, {"measurement": "TEAEs considered possibly or probably related to administration", "setting": "[4]; four subjects in Cohort 2 (600 mg)", "value": "dizziness, nausea, vomiting, dry mouth, and rash"}, {"measurement": "SAE", "setting": "[4]; mifepristone 300 or 600 mg OD 8 days + 400 mg ketoconazole Day 8", "value": "No subject experienced an SAE"}, {"measurement": "subjects with at least 1 TEAE", "setting": "[4]; twelve subjects, mifepristone 300 or 600 mg OD 8 days + 400 mg ketoconazole Day 8", "value": 50, "unit": "%"}, {"measurement": "liver function of the patient", "setting": "[5]; daily dose reduced from 600 mg to 300 mg with concomitant ketoconazole", "value": "not significantly compromised"}, {"measurement": "liver function of the patient", "setting": "[5]; daily dose reduced from 900 mg to 600 mg with concomitant ketoconazole", "value": "not significantly compromised"}, {"measurement": "liver function of the patient", "setting": "[5]; daily dose reduced from 1200 mg to 900 mg with concomitant ketoconazole", "value": "not significantly compromised"}, {"measurement": "liver function of the patient", "setting": "[5]; daily dose reduced from 1500 mg to 1200 mg with concomitant ketoconazole", "value": "not significantly compromised"}, {"measurement": "Mean Ratio AUCtotal (AUCinf, geometric mean ratio)", "setting": "[6]; [10]", "value": 1.05}, {"measurement": "Mean Ratio Cmax (geometric mean ratio)", "setting": "[6]; [10]", "value": 1.15}, {"measurement": "Terminal half-life Cohort 2 versus Cohort 1", "setting": "[6]; Keto 200 mg BID vs 400 mg OD", "value": "approximately the same"}, {"measurement": "Tmax Cohort 2 versus Cohort 1", "setting": "[6]; Keto 200 mg BID vs 400 mg OD", "value": "shorter"}, {"measurement": "AUCtot (AUCtotal, mean)", "setting": "[6]; [11]", "value": 130.925, "unit": "µg·h/mL"}, {"measurement": "AUCtot (AUCtotal, mean)", "setting": "[6]; [12]", "value": 116.939, "unit": "µg·h/mL"}, {"measurement": "Cmax", "setting": "[6]; [11]", "value": 4.14, "unit": "µg/mL"}, {"measurement": "AUC(0-t)", "setting": "[6]; [11]", "value": 40.6, "unit": "µg·h/mL"}, {"measurement": "half-life", "setting": "[6]; [11]", "value": 37.4, "unit": "h"}, {"measurement": "Tmax", "setting": "[6]; [11]", "value": 1, "unit": "h"}, {"measurement": "Cmax", "setting": "[6]; [12]", "value": 3.4, "unit": "µg/mL"}, {"measurement": "AUC(0-t)", "setting": "[6]; [12]", "value": 38.1, "unit": "µg·h/mL"}, {"measurement": "half-life", "setting": "[6]; [12]", "value": 37.1, "unit": "h"}, {"measurement": "Tmax", "setting": "[6]; [12]", "value": 2, "unit": "h"}]}]}
